# Measured values reported in patent US20260034079A1, “PHARMACEUTICAL COMPOSITION CONTAINING HYDROXYUREA FOR USE IN THE TREATMENT OF SEVERE CHRONIC ANEMIA” (THERAVIA, priority 2019, published 2026).
# System: sickle cell patients with severe chronic anaemia
# Assay: Clinical trial: hematological parameters during treatment with Siklos in HU-naive sickle cell patients with severe chronic anaemia
# Type: in vivo, human
# Procedure: This study was conducted with a pharmaceutical composition identical to that of Siklos.
# The dose of hydroxycarbamide is comprised from 5 to 30 mg/kg/day.
# The results of the evaluation of the hematological parameters of the patients are recorded in the table below.
# [1] = 12 months after the start of the treatment, p<0.001
compound,measurement,setting,value
"NC(=O)NO [hydroxycarbamide, hydroxyurea]","Haemoglobin, value after initiation of the treatment","12 months after initiation of Siklos (between 10 and 14 months), 41 patients, base value 7.16 ± 1.06, 5 to 30 mg/kg/day",7.89 ± 1.11 g/dL
same,"Variation of the haemoglobin, change with respect to the base value","12 months after initiation of Siklos (between 10 and 14 months), 41 patients, p 0.001",0.73 ± 1.30 g/dL
same,"Mean blood volume, change",[1],+10.82±11.42
same,"Number of reticulocytes, change",[1],−91.5±115.6
same,Absolute number of neutrophil,"after the start of the treatment, indicating adequate compliance",decreased
same,"Evolution of the fetal haemoglobin, change with respect to the base value","at least 6 months after initiation of Siklos (between 5 and 14 months), 23 patients, p <0.001",6.37±6.38%
same,"Variation of the haemoglobin, change with respect to the base value","at least 6 months after initiation of Siklos (between 5 and 14 months), 55 patients, p <0.001",0.65 ± 1.24 g/dL
